{
  "source": "patent US7655819B2",
  "about": "“Polymers with antimicrobial, bioresistant and fungal resistant properties” (TPAT IP LLC, priority 2002, dated 2010)",
  "key": {"nematodes in the soil": {"tested_on": "nematodes in the soil", "settings": "prior art; cited from earlier work"}, "[1]": {"settings": "prior art; cited from earlier work"}, "[2]": {"tested_on": "various strains of both gram positive and gram negative bacteria", "settings": "cited from earlier work"}, "fungus": {"tested_on": "fungus", "settings": "cited from earlier work"}, "[3]": {"tested_on": "bacteria (bacterial count)", "assay": "ASTM D-3946-92 testing of metalworking fluid Encool SS with product incorporated", "assay_type": "cell-based", "settings": "day 5, 1×10^7 without product", "description": "1,128 g oleic acid and 400 g BNPD plus 2 g sulfuric were charged in a three neck round bottom flask with agitation, nitrogen, and condenser and heated to 350 F and held for 2.5 hrs until 80 ml of water were recovered. This product was then incorporated into Engineered Lubricants Encool SS at 6% and 10% of the concentrate.\nThese samples were then submitted for ASTM D-3946-92 testing."}},
  "data": [
    {"smiles": "O=[N+]([O-])CBr", "note": "[bromonitromethane]", "values": [
      {"measurement": "effectiveness for the treatment of nematodes in the soil", "setting": "nematodes in the soil", "value": "effective"},
      {"measurement": "effectiveness as a general biocide", "setting": "[1]", "value": "effective"}
    ]},
    {"smiles": "O=[N+]([O-])C(Br)(CO)CO", "note": "[BNPD, 2-bromo-2-nitro-propane-1-3-diol]", "values": [
      {"measurement": "average minimum inhibitory concentration", "setting": "[2]; average over gram positive and gram negative strains", "value": "around 25 ppm"},
      {"measurement": "effective concentrations against bacteria", "setting": "[2]; various strains of gram positive and gram negative bacteria", "value": "1-50 ppm"},
      {"measurement": "antifungal activity", "setting": "fungus", "value": "antifungal"}
    ]},
    {"smiles": "CCCCCCC/C=C/CCCCCCCCC(=O)OCC(Br)(COC(=O)CCCCCCCC/C=C/CCCCCCC)[N+](=O)[O-]", "note": "[Example 7]", "values": [
      {"measurement": "bacterial count", "setting": "[3]; 6% incorporation in Encool SS concentrate", "value": "1.5×10^4"},
      {"measurement": "bacterial count", "setting": "[3]; 10% incorporation in Encool SS concentrate", "value": "3×10^3"}
    ]}
  ]
}
